Source: patent US8440710B2, “HSL inhibitors useful in the treatment of diabetes” (Hoffmann-La Roche Inc., priority 2009, dated 2013)

biological target: T1, human HSL (Homo sapiens, UniProt Q05469); test: Human Hormone-Sensitive Lipase (HSL) enzyme inhibition assay (colorimetric, DMPT substrate); format: biochemical; conditions: human full length HSL-His6, 2,3-dimercapto-1-propanol tributyrate substrate, 37° C. 20 minutes, absorbance at 405 nm; read-out: HSL hum IC50
T1 construct: generate a full length human HSL ORF with a 3′-His6 tag; made in house; host or cells: High 5 insect cells (baculovirus, pFast-BAC)
T1 sequence (Q05469 1-1076): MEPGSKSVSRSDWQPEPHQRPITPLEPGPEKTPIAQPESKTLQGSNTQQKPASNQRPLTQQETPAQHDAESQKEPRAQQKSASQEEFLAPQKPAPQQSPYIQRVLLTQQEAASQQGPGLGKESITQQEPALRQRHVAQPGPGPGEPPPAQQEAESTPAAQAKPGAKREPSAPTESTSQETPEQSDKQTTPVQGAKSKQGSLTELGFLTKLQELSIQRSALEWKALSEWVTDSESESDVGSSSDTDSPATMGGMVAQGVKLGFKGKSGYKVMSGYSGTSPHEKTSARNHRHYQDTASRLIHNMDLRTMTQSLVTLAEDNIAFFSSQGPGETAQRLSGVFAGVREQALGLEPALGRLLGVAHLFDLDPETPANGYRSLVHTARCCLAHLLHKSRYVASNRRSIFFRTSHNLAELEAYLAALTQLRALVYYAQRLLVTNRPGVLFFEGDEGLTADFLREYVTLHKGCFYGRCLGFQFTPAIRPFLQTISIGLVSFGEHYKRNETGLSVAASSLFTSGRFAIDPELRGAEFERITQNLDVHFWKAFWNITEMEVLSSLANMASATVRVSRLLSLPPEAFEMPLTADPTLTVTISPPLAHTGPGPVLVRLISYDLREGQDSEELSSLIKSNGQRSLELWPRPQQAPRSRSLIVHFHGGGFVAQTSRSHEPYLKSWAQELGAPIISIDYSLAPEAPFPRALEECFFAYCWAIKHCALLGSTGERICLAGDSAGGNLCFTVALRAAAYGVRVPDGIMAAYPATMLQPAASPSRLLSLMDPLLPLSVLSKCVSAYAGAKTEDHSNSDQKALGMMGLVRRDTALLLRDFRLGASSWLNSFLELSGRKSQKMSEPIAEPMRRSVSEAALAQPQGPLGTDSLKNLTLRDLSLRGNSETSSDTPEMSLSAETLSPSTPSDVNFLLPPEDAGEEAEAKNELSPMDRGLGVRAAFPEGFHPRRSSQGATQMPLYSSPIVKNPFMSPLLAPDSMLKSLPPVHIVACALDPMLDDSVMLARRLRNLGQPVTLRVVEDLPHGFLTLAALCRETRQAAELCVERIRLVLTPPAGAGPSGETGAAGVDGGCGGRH
Protocol: Production of Human Full Length Hormone Sensitive Lipase-His^6:
1) Cloning: cDNA was prepared from commercial human brain polyA+ RNA and used as a template in overlapping PCR to generate a full length human HSL ORF with a 3′-His6 tag. This full length insert was cloned into the pFast-BAC vector and the DNA-sequence of several single clones was verified. DNA from a correct full length clone with the 3′His6 tag was used to transform the E. coli strain DH10BAC. Resulting bacmid DNA was used to generate a titered baculovirus stock for protein generation. The sequence of the encoded HSL conforms to Swissprot entry Q05469, with the additional C-terminal His6-tag. 2) Protein purification: Culture: 5.5 L, High 5 cells expressing human full length HSL-His^6, 48 hr., containing 25 μM E-64. Cell count: […], 90% viable. Cells were thawed. On ice, cells were suspended in Base Buffer containing 10% glycerol, 25 mM Tris-Cl, 300 mM NaCl, 10 mM imidazole, 10 mM 2-mercaptoethanol, 2 μg pepstatin/ml, 2 μg leupeptin/ml, 2 μg antipain/ml, pH 8.0 at 4° C. in a final volume of 475 ml with 3.75×10^7 cells/ml. […] was done at 3×30 sec., Lubrol PX was added to 0.2% final concentration followed by stirring for 15 min. at 4° C. and centrifugation at 25 k×g, 60 min., 4° C. Soluble proteins were mixed with 60 ml of pre-washed and equilibrated Ni-NTA Agarose (Qiagen 30210) followed by tumbling end-over-end, 45 min., 4° C., centrifugation 1000 rpm 5 min and letting resin settle 5 min. Supernatant was removed, the resin washed in the centrifuge vessel using 5 volumes of Base Buffer containing 0.2% Lubrol PX. Centrifugation was done again, then the supernatant discarded. The resin was poured onto a 0.8 μm membrane in a disposable filter unit (Nalge 450-0080), and washed with 5 volumes of Base Buffer containing 0.2% Lubrol PX. It was then washed with 30 volumes of Base Buffer containing 60 mM imidazole pH 7.5 at 4° C. The protein was eluated with 5 volumes of 25 mM Tris-Cl, 300 mM NaCl, 200 mM imidazole, 10 mM 2-mercaptoethanol, pH 7.5 at 4° C. by tumbling resin with buffer end-over-end, 30 min., 4° C. The resin was captured on a 0.2 μm membrane disposable filter unit (Millipore SCGP U02 RE) and the eluate collected in the reservoir. The eluate was concentrated using a 30 k MWCO centrifugal filter device (Sartorius Vivascience Vivacell 100, VC1022), to 20 ml. It was then dialyzed overnight at 4° C., two times against 2 L of 10% glycerol, 25 mM Tris-Cl, 300 mM NaCl, 0.2 mM EDTA, 0.2 mM DTT, pH 7.5 at 4° C. The protein was filtered using a 0.22 μm disposable filter unit (Millipore SCGP00525). The protein concentration was calculated from absorbance at 280 nm, using 280=0.67 cm-1 mg-1. Yield was 235 mg, total. The protein was stored at −80° C. Human Hormone-Sensitive Lipase (HSL) Enzyme Inhibition Assay:
HSL enzyme activity was measured by a colorimetric assay using 2,3-dimercapto-1-propanol tributyrate (Aldrich, St. Louis, Mo.) as a substrate. Typically, 1.5 mM 2,3-dimercapto-1-propanol tributyrate (DMPT) in 100 mM MOPS, pH 7.2, 0.2 mg/ml fatty acid-free BSA was prepared by sonication at 4° C. to homogenous suspension. Test compounds (2 mM stock in DMSO) were diluted 3 fold in series in DMSO. Compound solutions were diluted 24 fold in 1.5 mM DMPT containing solution and 18 ul per well was added to 384-well microplates (Corning Costar). Twelve microliters per well of human HSL (15 ug/ml) was added and the reaction mixture was incubated at 37° C. for 20 minutes. Six microliters of 12 mM dithio-bis-(2-nitrobenzoic acid) (DTNB) in DMSO plus 1.2% SDS and 0.6% Triton X-100 were added and the mixture was incubated at room temperature for 15 minutes. Product production was monitored by reading absorbance at 405 nm on an Envision Reader (PerkinElmer Life and Analytical Sciences, Shelton, Conn.).

IC50	SMILES
80 nM	CNC(=O)O[C@H]1CC[C@@]2(CCN(c3ccc(OC(F)(F)F)cc3)C2=O)CC1 [Example 17, Methyl-carbamic acid [(5α,8β)-1-oxo-2-(4-trifluoromethoxy-phenyl)-2-aza-spiro[4.5]dec-8-yl]ester]
60 nM	O=C(NCCc1ccccc1)O[C@H]1CC[C@@]2(CCN(c3ccc(OC(F)(F)F)cc3)C2=O)CC1 [Example 18, Phenethyl-carbamic acid [(5α,8β)-1-oxo-2-(4-trifluoromethoxy-phenyl)-2-aza-spiro[4.5]dec-8-yl]ester]
140 nM	O=C1N(c2ccc(OC(F)(F)F)cc2)CC[C@]12CC[C@@H](Oc1cnccn1)CC2 [Example 19, (5α,8β)-8-(Pyrazin-2-yloxy)-2-(4-trifluoromethoxy-phenyl)-2-aza-spiro[4.5]decan-1-one]
100 nM	O=C1N(c2ccc(OC(F)(F)F)cc2)CC[C@]12CC[C@@H](Oc1ncccn1)CC2 [Example 20, (5α,8β)-8-(Pyrimidin-2-yloxy)-2-(4-trifluoromethoxy-phenyl)-2-aza-spiro[4.5]decan-1-one]
100 nM	Cc1ccc(O[C@H]2CC[C@@]3(CCN(c4ccc(OC(F)(F)F)cc4)C3=O)CC2)nn1 [Example 21, (5α,8β)-8-(6-Methyl-pyridazin-3-yloxy)-2-(4-trifluoromethoxy-phenyl)-2-aza-spiro[4.5]decan-1-one]
60 nM	O=C(NCC1CC1)O[C@H]1CC[C@@]2(CCN(c3ccc(OC(F)(F)F)cc3)C2=O)CC1 [Example 22, (Cyclopropylmethyl)-carbamic acid [(5α,8β)-1-oxo-2-(4-trifluoromethoxy-phenyl)-2-aza-spiro[4.5]dec-8-yl]ester]
190 nM	COCCO[C@H]1CC[C@@]2(CCN(c3ccc(OC(F)(F)F)cc3)C2=O)CC1 [Example 23, (5α,8β)-8-(2-Methoxy-ethoxy)-2-(4-trifluoromethoxy-phenyl)-2-aza-spiro[4.5]decan-1-one]
370 nM	CCO[C@H]1CC[C@@]2(CCN(c3ccc(OC(F)(F)F)cc3)C2=O)CC1 [Example 24, (5α,8β)-8-Ethoxy-2-(4-trifluoromethoxy-phenyl)-2-aza-spiro[4.5]decan-1-one]
80 nM	Cc1cnc(CNC(=O)O[C@H]2CC[C@@]3(CCN(c4ccc(OC(F)(F)F)cc4)C3=O)CC2)cn1 [Example 25, (5-Methyl-pyrazin-2-ylmethyl)-carbamic acid [(5α,8β)-1-oxo-2-(4-trifluoromethoxy-phenyl)-2-aza-spiro[4.5]dec-8-yl]ester]
110 nM	CC(C)(O)CNC(=O)O[C@H]1CC[C@@]2(CCN(c3ccc(OC(F)(F)F)cc3)C2=O)CC1 [Example 26, (2-Hydroxy-2-methyl-propyl)-carbamic acid [(5α,8β)-1-oxo-2-(4-trifluoromethoxy-phenyl)-2-aza-spiro[4.5]dec-8-yl]ester]
180 nM	O=C(NCCO)O[C@H]1CC[C@@]2(CCN(c3ccc(OC(F)(F)F)cc3)C2=O)CC1 [Example 27, (2-Hydroxy-ethyl)-carbamic acid [(5α,8β)-1-oxo-2-(4-trifluoromethoxy-phenyl)-2-aza-spiro[4.5]dec-8-yl]ester]
80 nM	O=C(NCc1cnccn1)O[C@H]1CC[C@@]2(CCN(c3ccc(OC(F)(F)F)cc3)C2=O)CC1 [Example 28, (Pyrazin-2-ylmethyl)-carbamic acid [(5α,8β)-1-oxo-2-(4-trifluoromethoxy-phenyl)-2-aza-spiro[4.5]dec-8-yl]ester]
80 nM	O=C(NC1CC1)O[C@H]1CC[C@@]2(CCN(c3ccc(OC(F)(F)F)cc3)C2=O)CC1 [Example 29, Cyclopropyl-carbamic acid [(5α,8β)-1-oxo-2-(4-trifluoromethoxy-phenyl)-2-aza-spiro[4.5]dec-8-yl]ester]
250 nM	NC(=O)O[C@H]1CC[C@@]2(CCN(c3ccc(OC(F)(F)F)cc3)C2=O)CC1 [Example 30, Carbamic acid [(5α,8β)-1-oxo-2-(4-trifluoromethoxy-phenyl)-2-aza-spiro[4.5]dec-8-yl]ester]
23700 nM	COc1ccc(N2CC[C@]3(CC[C@H](O)CC3)C2=O)cc1 [Example 31, (5α,8α)-8-Hydroxy-2-(4-methoxy-phenyl)-2-aza-spiro[4.5]decan-1-one]
900 nM	CCc1ccc(N2CC[C@]3(CC[C@H](O)CC3)C2=O)cc1 [Example 32, (5α,8α)-2-(4-Ethyl-phenyl)-8-hydroxy-2-aza-spiro[4.5]decan-1-one]
6000 nM	O=C1N(CCc2ccc(F)cc2)CC[C@]12CC[C@H](O)CC2 [Example 33, (5α,8α)-2-[2-(4-Fluoro-phenyl)-ethyl]-8-hydroxy-2-aza-spiro[4.5]decan-1-one]
800 nM	CCc1ccc(CCN2CC[C@]3(CC[C@H](O)CC3)C2=O)cc1 [Example 34, (5α,8α)-2-[2-(4-Ethyl-phenyl)-ethyl]-8-hydroxy-2-aza-spiro[4.5]decan-1-one]
16500 nM	COc1ccc(CCN2CC[C@]3(CC[C@H](O)CC3)C2=O)cc1 [Example 35, (5α,8α)-8-Hydroxy-2-[2-(4-methoxy-phenyl)-ethyl]-2-aza-spiro[4.5]decan-1-one]
210 nM	CCCc1ccc(N2CC[C@]3(CC[C@H](O)CC3)C2=O)cc1 [Example 37, (5α,8α)-8-Hydroxy-2-(4-propyl-phenyl)-2-aza-spiro[4.5]decan-1-one]
240 nM	CC(C)c1ccc(N2CC[C@]3(CC[C@H](O)CC3)C2=O)cc1 [Example 38, (5α,8α)-8-Hydroxy-2-(4-isopropyl-phenyl)-2-aza-spiro[4.5]decan-1-one]
